Experiment [1] concerns PI2 virus. The experiment is described as follows: Inhibition of virus production (released virus titer) in HeLa-T4 cells, PI2. It counts as cell-based, parainfluenza virus type 2.
The next experiment deals with T1, PI2F + PI2HN (Human parainfluenza 2 virus, UniProt P25467).
T1 construct: expressed in transfected cells; host or cells: HeLa-T4 cells infected with vTF7.3
T1 sequence (P25467 107-551 limits assumed): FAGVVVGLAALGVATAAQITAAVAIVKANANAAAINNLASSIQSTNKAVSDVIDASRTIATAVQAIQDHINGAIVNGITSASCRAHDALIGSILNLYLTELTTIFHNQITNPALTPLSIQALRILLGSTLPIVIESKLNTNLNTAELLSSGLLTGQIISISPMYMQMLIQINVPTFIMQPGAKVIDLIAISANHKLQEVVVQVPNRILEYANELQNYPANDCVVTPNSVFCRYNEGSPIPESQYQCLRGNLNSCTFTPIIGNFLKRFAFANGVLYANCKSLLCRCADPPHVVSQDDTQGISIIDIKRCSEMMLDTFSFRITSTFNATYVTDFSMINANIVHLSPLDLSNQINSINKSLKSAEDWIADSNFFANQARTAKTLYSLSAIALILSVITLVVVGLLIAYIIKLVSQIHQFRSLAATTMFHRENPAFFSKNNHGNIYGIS
T1 sequence (P25467 24-106 partner limits assumed): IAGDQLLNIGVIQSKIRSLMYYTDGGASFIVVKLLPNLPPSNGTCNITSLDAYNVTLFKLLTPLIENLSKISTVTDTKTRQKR
It counts as cell-based, parainfluenza virus type 2.

Experiment [2] concerns PI2 virus. It counts as cell-based, parainfluenza virus type 2. Particulars: for syncytium formation / inhibition of cell fusion in PI2 infected HeLa-T4 cells (in words): incubated with peptide, concentration not given; for inhibition of PI2 virus-induced cell fusion: 24 h post infection, m.o.i. 0.1.
In the next experiment the test system is HIV-1. Particulars: Wild et al. 1994; cited from earlier work.
In experiment [3] the test system is PI2 virus. The experiment is described as follows: Plaque size reduction on Vero cells, peptide in agar overlay. Particulars: 80 μM peptide in agar overlay after 1 h absorption; control cells 3 mm; three days. It is filed as cell-based, parainfluenza virus type 2. On the procedure: FIGS. 11A and 11B Plaque size reduction by F peptides. Plaque assay was performed on the Vero cells using PI2 virus. After 1 h absorption at 37° C., inoculum was removed and cells overlaid with a 1:1 mixture of 2% white agar with 2XDMEM containing 2% FBS (A) without addition of F peptide, or (B) with addition of 80 μM of 2F1B34 in the overlay agar. Three days after overlaying, the agar was removed and the monolayer of cells was stained with crystal violet.
As another indication of a reduction in spread of virus under condition of multiple cycle replication, the effect of the peptides on plaque size was determined.

Experiment [4] relates to PI2 virus. The experiment is described as follows: Surface immunofluorescence of PI2 antigen on infected HeLa-T4 cells (viral spread). It is filed as cell-based, parainfluenza virus type 2. Particulars: low m.o.i. infection, incubated with peptide. The method, then:
Surface immunofluorescence. Indirect immunofluorescence was performed as described by Paterson et al. 1989. In general, HeLa-T4 cells were grown on glass coverslips in 24-well plates and infected with wild-type PI2 virus as described above. At indicated times post infection, cells were washed with ice-cold PBS three times before being fixed with 1% paraformaldehyde in PBS. Rabbit anti-PI2 antibody was added onto cell monolayers, and cells were then incubated at 4° C. for 30 min. Cells were washed with ice-cold PBS three times, and then goat anti-rabbit immunoglobulin G fluorescein-conjugated antibody (Southern Biotechnology Associates, Inc., Birmingham, Ala.) was added and was then incubated at 4° C. for 30 min. Cell surface fluorescence was examined by fluorescence microscopy with a Nikon Optiphot microscope.
To further confirm that the F peptides inhibit viral spread, we examined the distribution of infected cells by surface immunofluorescence at intervals post low m.o.i. infection in the presence or absence of F peptides.

Experiment [5] relates to PI2 virus. Description: Inhibition of plaque formation on Vero cells (viral entry), PI2. It is filed as cell-based, parainfluenza virus type 2. On the procedure:
(§1) Inhibition of plaque formation. A series of 2-fold dilutions of F peptides together with appropriately diluted PI2 or PI3 virus were added to monolayers of Vero cells. After 1 h incubation at 37° C., the inoculum was removed and overlaid with 2% white agar mixed at 1:1 ratio with 2XDMEM containing 2% FBS. Three days after overlying, red agar mixed at a 1:1 ratio with 2XDMEM containing 2% FBS was overlaid to stain the cells. Plaque numbers were counted one day after neutral red staining and recorded. The Reed-Muench method of estimating 50% endpoint [Welkos, S. et al., (1994) Methods in Enzymology. 235:29-39] was used to calculate the F peptide 50% effective concentration (EC50) value.
(§2) F peptides inhibit viral spread. To determine whether the F peptide interferes with the viral entry process, a plaque assay was performed by inoculating cells with virus and peptide together at 37° C. for 1 h, and then overlaying with agar without the addition of peptide. At 10^4 dilution of the PI2 virus stock, 80 μM of the 2F1B34 peptide (SEQ ID NO:21) caused an 80% reduction in number of plaques. Similarly, at 10^5 dilution of the PI3 virus stock, 100 μM of the 3F1B35 peptide (SEQ ID NO:23) caused a 70% reduction in number of plaques. Furthermore, the reduction in the number of viral plaques was correlated with increasing concentration of peptide incubated with the virus. […]

The subject of experiment [6] is PI3 virus. It counts as cell-based, human parainfluenza type 3 virus.
Experiment [7] deals with PI3 virus. The experiment is described as follows: Inhibition of plaque formation on Vero cells (viral entry), PI3. It is filed as cell-based, human parainfluenza type 3 virus. Particulars: 100 μM peptide with virus 1 h at 37° C.; 10^5 dilution of the PI3 virus stock; overlay without peptide. On the procedure: as §1, §2
The next experiment has as its target PI3F + PI3HN (Human parainfluenza 3 virus, UniProt P06828).
For experiment [8], the target named is PI2 F plus PI2 HN (viral glycoproteins of PI2 virus; HN:F) (parainfluenza type 2 (PI2) virus).
For experiment [9] the target is unchanged. The source holds these as a separate data set.
The target is the same in experiment [10]. The source holds these as a separate data set.

Where two headings read alike, the source gives them in different places.

PI3F + PI3HN, sequence (P06828 110-539): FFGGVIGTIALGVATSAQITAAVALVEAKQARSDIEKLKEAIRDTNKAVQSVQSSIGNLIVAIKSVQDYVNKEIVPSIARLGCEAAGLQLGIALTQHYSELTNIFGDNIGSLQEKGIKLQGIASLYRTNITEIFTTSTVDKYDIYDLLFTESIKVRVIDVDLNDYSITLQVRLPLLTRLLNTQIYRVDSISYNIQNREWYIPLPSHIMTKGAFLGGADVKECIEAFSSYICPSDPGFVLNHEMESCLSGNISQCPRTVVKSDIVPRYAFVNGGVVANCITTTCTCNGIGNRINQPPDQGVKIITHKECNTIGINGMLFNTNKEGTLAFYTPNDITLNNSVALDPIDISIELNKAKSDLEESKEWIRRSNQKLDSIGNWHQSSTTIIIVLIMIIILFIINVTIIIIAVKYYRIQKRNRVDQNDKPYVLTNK
PI3F + PI3HN, sequence (P06828 19-109): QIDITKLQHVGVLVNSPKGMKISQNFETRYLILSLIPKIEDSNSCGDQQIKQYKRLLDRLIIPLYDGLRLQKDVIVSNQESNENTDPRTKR

Consider “2F1B21: 21 a.a. PI2F peptide from the beginning of the transmembrane domain to a predicted glycosylation site in the heptad repeat B region (KSAEDWIADSNFFANQARTAK)”, for which, in the experiment with PI2 virus [1] (compared with 2F1B34), the “effect on multiple cycle growth, PI2 (in words)” value is “not as dramatic as”. In the experiment with PI2F + PI2HN, the “inhibition of cell fusion by vaccinia-expressed PI2 F and HN (in words)” value is listed as “only partially inhibited cell fusion”. Moreover, in the experiment on PI2 virus [2], the “inhibition of PI2 cell fusion at high peptide concentration” value is “could only partially inhibit cell fusion” and the “syncytium formation / inhibition of cell fusion in PI2 infected HeLa-T4 cells (in words)” value was “dramatically decreased”. In addition, the “inhibition of PI2 virus-induced cell fusion” value with PI2 virus [2] (peptide 200 μM or more) is reported as “cell fusion was reduced remarkably”.

In the case of enfuvirtide, in the experiment with HIV-1, the “potency against cell-cell fusion versus infection by cell-free virus” value is recorded as “more potent inhibitor of cell-cell fusion than of infection by cell-free virus”.

With “2F1B34: PI2F peptide from the beginning of the transmembrane domain to include the entire heptad repeat B region (DLSNQINSINKSLKSAEDWIADSNFFANQARTAK)”, the “decrease in the viral titer, PI2” value with PI2 virus [1] (48 h post infection, m.o.i. 0.1, 80 μM peptide (FIG. 10), culture supernatant) amounted to 15 fold. Also, in the experiment with PI2F + PI2HN (18 hr), the “inhibition of cell fusion induced by coexpression of PI2 F plus PI2 HN” value is listed as “completely inhibit”. The “plaque size (diameter)” value in the experiment with PI2 virus [3] worked out at 1.5 mm. Further, in the experiment with PI2 virus [2], the “syncytium formation / inhibition of cell fusion in PI2 infected HeLa-T4 cells (in words)” value was “no syncytia were seen”. Besides, the “inhibition of PI2 virus-induced cell fusion” value in the experiment on PI2 virus [2] (peptide concentration as low as 80 μM) was “completely inhibited”. In the experiment with PI2 virus [4], the “cells expressing PI2 antigen on the surface at 18 h” value was “only few cells were expressing PI2 antigen”; the “numbers of cells showing PI2 antigen expression on the surface at 24 h and 48 hpi” value is given as “no increase in numbers of cells showing antigen expression”. Besides, the “reduction in number of plaques, PI2” value with PI2 virus [5] (80 μM peptide with virus 1 h at 37° C., 10^4 dilution of the PI2 virus stock, overlay without peptide) stood at 80%. In the experiment with PI2 virus [5] (Vero cells, Reed-Muench method, read-out: 50% effective concentration (EC50), plaque number, PI2), the EC50 was determined as 53.8 µM.

Regarding “3F1B35: 35 a.a. PI3F peptide from the beginning of the transmembrane domain to include the entire heptad repeat B (ELNKAKSDLEESKEWIRRSNQKLDSIGNWHQSSTT)”, the “syncytium formation / inhibition of cell fusion in PI3 infected HeLa-T4 cells (in words)” value in the experiment on PI3 virus [6] (incubated with peptide, concentration not given) was “no syncytia were seen”. In addition, in the experiment with PI3 virus [6] (peptide 100 μM, 24 h post infection), the “inhibition of PI3 virus-induced cell fusion” value is “completely inhibited”. Further, in the experiment with PI3 virus [7], the “reduction in number of plaques, PI3” value was determined as 70%. Besides, the “inhibition of fusion by PI3 F plus PI3 HN” value in the experiment with PI3F + PI3HN is given as “can inhibit”.

For the molecule Ac-DLSNQINSINKSLKSAEDWIADSNFFANQARTAK-NH2 [peptide 2F1B34], in experiment [8], the 50% effective concentration (EC50) of inhibition of virus infection efficiency, plaque assay, Reed-Muench method is 53.8 µM. The plaque size (peptide in the agar overlay after virus absorption, Vero cells) in [9] turned out to be 1.5 mm. Besides, the viral titer in the culture supernatant 48 h post infection (plaque assay) (fold decrease) in experiment [10] stood at 15.
